Assay results taken from US11324798B2, “Materials and methods for treatment of inflammation” (CYTOGEL PHARMA, LLC, priority 2010, dated 2022).
“Also recorded” adds a separate entry of the source.

Test system: mustard oil-induced acute neurogenic inflammation in the mouse ear
Experiment: Filtered and non-filtered CYT-1010 on 5% mustard oil-induced acute neurogenic ear swelling in mice (Example 4)
Type: in vivo
Procedure: Stock solution of the 100 μg/ml concentration of CYT-1010 (5.5 ml) was prepared fresh every experimental day with 20% hydroxypropyl-βcyclodextrin (HPCD) dissolved in sterile distilled water, shaken properly and sonicated. The vehicle was 20% HPCD dissolved in sterile distilled water. Further dilutions of the compound for the smaller administered doses were made with this vehicle. The applied concentrations were filtered through a 0.2 μm sterile teflon filter. […] The lower concentrations looked clear immediately. Non-filtered solutions were administered in the same concentrations in the parallel groups for comparison. Three doses of both the filtered and non-filtered CYT-1010 solutions (1, 10 and 100 μg/kg; 0.1 ml/10 g from the 0.1, 1 and 10 μg/ml solutions) were administered i.v. 5 min before the induction of the inflammation. Animals of the control group were treated with the same volume of the HPCD after or without the same filtration procedure.
Mice were anaesthesized with urethane (1.2 g/kg i.p.) to achieve a long-lasting deep anaesthesia and minimize respiratory depression. Ten μl of 5% mustard oil dissolved in paraffin oil was smeared on both sides of both ears. Mustard oil in this concentration selectively activates Transient Receptor Potential A1 (TRPA1) on capsaicin-sensitive peptidergic sensory nerves and induces the release of sensory neuropeptides (Banvolgyi et al., 2004). The released calcitonin gene-related peptide (CGRP) and tachykinins such as substance P (SP) in the innervated area evoke vasodilatation and plasma protein extravasation collectively called acute neurogenic inflammation (Helyes et al., 1997, 2001, 2006; Borzsei et a., 2008).
CYT-1010 (1, 10 and 100 μg/kg; 0.1 ml/10 g from the 0.1, 1, 10 μg/ml solutions) was administered i.v. 5 min before the induction of the inflammation by mustard oil smearing. Mice in the control group were treated with the same volume of the vehicle, 20% HPCD dissolved in sterile distilled water
There were 8 mice in each experimental group, and 9 in the 1 μg/kg filtered CYT-1010 dose group […].
65 male CD1 mice (25-35 g) were divided into 8 experimental groups: Group 1: non-filtered vehicle-treated controls (n=8); Group 2: non-filtered 1 μg/kg CYT-1010 (n=8); Group 3: non-filtered 10 μg/kg CYT-1010 (n=8); Group 4: non-filtered 100 μg/kg CYT-1010 (n=8); Group 5: filtered vehicle-treated controls (n=8); Group 6: filtered 1 μg/kg CYT-1010 (n=9); Group 7: filtered 10 μg/kg CYT-1010 (n=8); and Group 8: filtered 100 μg/kg CYT-1010 (n=8).
This study was undertaken in blocks with 16-17 mice per occasion. The whole set of data was obtained during 4 days (12, 13, 16, 22 Apr. 2010). There were 2 or 3 solvent-treated rats every day and the remaining 12 animals were randomised to receive each treatment.
The diameter of the ear was measured with an engineers' micrometer before the treatment and 4 times during the 3 h-examination period (20 min, 1 h, 2 h and 3 h). Edema was expressed in % compared to the initial control values (Banvolgyi et al., 2004; Borzsei et al., 2008). The compound was administered i.v. 5 min before mustard oil smearing in 3 doses (1, 10, 100 μg/kg) in separate groups after sterile filtration or without filtration. Animals of the control group were treated with the same volume of the vehicle
Results are expressed as the mean±s.e.m. Statistical significance was performed with one-way ANOVA followed by Dunnett's post-hoc test (modified t-test) when the data of the CYT-1010-treated groups were compared to the respective vehicle-treated controls at certain time points. The areas under the time-dependent percentage ear swelling curves (AUC) were also calculated and analyzed with the same statistics to compare the whole edema responses of the CYT-1010-treated mice during the 3 h-experimental period to the respective control group. *p<0.05 was considered to be significant. […]

## NC(Cc1ccc(O)cc1)C(=O)NC1CCCCNC(=O)C(Cc2ccccc2)NC(=O)C(Cc2c[nH]c3ccccc23)NC1=O [CYT-1010, H-Tyr-c-[D-Lys-Trp-Phe]]
0.2 μm sterile filter, filtered vs non-filtered
  Effect of filtration on the inhibitory action of CYT-1010: moderately decreases
Filtered (0.2 μm), 1 μg/kg i.v., control 50.04±6.96, NS
  AUC of time course of percentage ear swelling: 51.47±6.93 units
Filtered (0.2 μm), 10 μg/kg i.v., control 50.04±6.96, NS
  AUC of time course of percentage ear swelling: 33.68±3.79 units
Filtered (0.2 μm), 100 μg/kg i.v., control 50.04±6.96, NS
  AUC of time course of percentage ear swelling: 33.97±5.62 units
filtered, 1 μg/kg i.v.
  Effect on mustard oil-induced ear swelling: did not influence ear swelling; also recorded: did not have any effect
filtered, 10 μg/kg and 100 μg/kg i.v., 20 min
  Effect on mustard oil-induced ear swelling: inhibited significantly
filtered, two higher doses (10 and 100 μg/kg i.v.)
  Effect on mustard oil-induced ear swelling: moderate inhibition
non-filtered, 1 μg/kg i.v.
  Effect on mustard oil-induced ear swelling: did not significantly diminish ear swelling
non-filtered, 1 μg/kg i.v., control 44.02±6.97, NS
  AUC of time course of percentage ear swelling: 40.33±5.32 units
non-filtered, 10 μg/kg and 100 μg/kg i.v., both cases
  Extent of the inhibition of ear swelling: about 50%
non-filtered, 10 μg/kg and 100 μg/kg i.v., from 20 min until the 2 hour time point
  Effect on mustard oil-induced ear swelling: significantly inhibited; also recorded: significantly reduced
non-filtered, 10 μg/kg i.v., control 44.02±6.97, P<0.05
  AUC of time course of percentage ear swelling: 24.21±2.75 units
non-filtered, 100 μg/kg i.v., control 44.02±6.97, P<0.01
  AUC of time course of percentage ear swelling: 21.71±1.72 units
